Source: patent US11529334B2, “Pharmaceutical composition for treating or preventing Parkinson's disease comprising STT as an active ingredient” (GACHON UNIVERSITY OF INDUSTRY—ACADEMIC COOPERATION …, priority 2019, dated 2022)

Target: T1, TPP domain of DUSP10 (Homo sapiens, UniProt Q9Y6W6)
T1 sequence (Q9Y6W6 321-464 limits assumed): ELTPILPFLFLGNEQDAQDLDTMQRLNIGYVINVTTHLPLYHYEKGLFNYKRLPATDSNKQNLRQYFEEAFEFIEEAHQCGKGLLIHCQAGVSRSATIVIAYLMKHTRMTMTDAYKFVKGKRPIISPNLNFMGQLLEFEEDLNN
Experiment: SPR (Surface Plasmon Resonance) assay, Reichert SR7500DC
Type: binding
Protocol: SPR (Surface Plasmon Resonance) assay was performed using Reichert SR7500DC system to confirm the presence or absence of interaction between the compounds above and the TPP domain of DUSP10.

[1] = Table 1, running buffer 1xPBS, 2% DMSO
[2] = Table 1, running buffer 1xPBS, pH 7.4

interaction with the TPP domain (in words) (SPR): weak interaction
Ka (association rate) [1]: 2.90(4) M−^1-s−^1
Kd [1]: 12.3 mM
Kd (dissociation rate) [1]: 0.0357(6) s−^1
Ka (association rate) [2]: 3.50(5) M−^1-s−^1
Kd [2]: 17.9 mM
Kd (dissociation rate) [2]: 0.0627(9) s−^1
Kd (Table 2, 0-200 mM analyte): 63 mM
Ka (Table 2, higher analyte concentrations (MES up to 200 mM, STT up to 10 mM)): 0.152(7) M−^1-s−^1
dissociation rate constant (kd) (Table 2, second column headed Ka, higher analyte concentrations): 0.0096(2) s−^1
Compound: O=S(=O)(O)CCN1CCOCC1 [MES]
